Values joined by “and” are separate entries in the source; they are usually repeats but may differ in a detail not shown here. Equal values may be shown once.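 Briefly, cells in 96-well plates were exposed to five compound concentrations for 48 h, and endpoints were estimated by linear interpolation. At the GI50, growth is halved. TGI: total growth inhibition.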
What was measured:
Test in all cases: inhibition of tumour cell growth, NCI panel, 48 h
CAKI-1 renal = tested on: CAKI-1 renal
HCT-15 colon = tested on: HCT-15 colon
KM12 colon = tested on: KM12 colon
MALME-3M melanoma = tested on: MALME-3M melanoma
NCI-H23 lung = tested on: NCI-H23 lung
OVCAR-3 ovarian = tested on: OVCAR-3 ovarian
OVCAR-8 ovarian = tested on: OVCAR-8 ovarian
RPMI-8226 leukemia = tested on: RPMI-8226 leukemia
SF-295 CNS = tested on: SF-295 CNS
SNB-75 CNS = tested on: SNB-75 CNS

Row | SMILES | TGI (CAKI-1 renal) | TGI (HCT-15 colon) | TGI (KM12 colon) | TGI (MALME-3M melanoma) | TGI (NCI-H23 lung) | TGI (OVCAR-3 ovarian) | TGI (OVCAR-8 ovarian) | TGI (RPMI-8226 leukemia) | TGI (SF-295 CNS) | TGI (SNB-75 CNS) | GI50 (CAKI-1 renal) | GI50 (HCT-15 colon) | GI50 (KM12 colon) | GI50 (MALME-3M melanoma) | GI50 (NCI-H23 lung) | GI50 (OVCAR-3 ovarian) | GI50 (OVCAR-8 ovarian) | GI50 (RPMI-8226 leukemia) | GI50 (SF-295 CNS) | GI50 (SNB-75 CNS)
1 | Cc1nnc(N/N=C(/C(=O)C(C#N)c2ccccc2)C(C#N)c2ccccc2)n1N (centres undefined) | > 56 µM | > 53 µM | > 55.4 µM | 9.29 µM | 17.8 µM | 53.3 µM | 15.2 µM | 85.8 µM | 13.7 µM | 34.7 µM | – | – | – | – | – | – | – | – | – | –
2 | CC1(C)N=C(N)N=C(N)N1c1ccc(OCC(=O)Nc2ccccc2)c(Cl)c1 | > 100 µM | > 100 µM | > 100 µM | > 100 µM | > 100 µM | > 100 µM | > 100 µM | > 100 µM | > 100 µM | > 100 µM | > 85.9 µM | 72.3 µM | 0.842 µM | > 71.4 µM | 2.96 µM | 8.51 µM | 6.69 µM | 9.89 µM | 0.702 µM | > 100 µM
3 | Cc1ccc2nc3c(Cl)c(C)c(=O)cc-3sc2c1 | > 100 µM | > 100 µM | > 100 µM | > 100 µM | > 100 µM | > 100 µM | > 100 µM | > 100 µM | > 100 µM | > 100 µM | > 100 µM | 34.3 µM | 78 µM | 73.8 µM | 23.7 µM | 50.2 µM | – | – | – | 31.6 µM
4 | COc1ccc(CC(C)C(C)Cc2ccc(OC)c(OC)c2)cc1OC (centres undefined) | > 1400 µM | > 1400 µM | > 1400 µM | > 1400 µM | > 1400 µM | > 1400 µM | > 1400 µM | > 1400 µM | > 1400 µM | > 1400 µM | > 1400 µM | > 1400 µM | > 1400 µM | > 1400 µM | 297 µM | > 1400 µM | > 1400 µM | 96.7 µM | 642 µM | > 1400 µM
5 | Cc1ccccc1Nc1nc2c(s1)C(=O)c1ccccc1C2=O | 30.3 µM | 10.7 µM | 23.4 µM | 28.2 µM | 14.1 µM | 5.31 µM | 9.05 µM | 18 µM | 32.9 µM | 29.9 µM | – | – | – | – | – | – | – | – | – | –
6 | CC(CC(=O)Nc1ccc(NC(=O)CC(C)N=NC(N)=S)cc1)N=NC(N)=S (centres undefined) | > 100 µM | > 100 µM | > 100 µM | > 100 µM | > 100 µM | > 100 µM | > 100 µM | > 100 µM | > 100 µM | > 100 µM | – | – | – | – | – | – | – | – | – | –
7 | Cc1cc(Nc2nc(SCc3ccc(C(=O)Nc4ccc(F)cc4N)cc3)nn3cccc23)n[nH]1 | – | > 100 µM | 10.3 µM | 25.7 µM | 47.4 µM | 49.1 µM | 88 µM | 3.72 µM | 25.9 µM | 35.4 µM | – | 0.424 µM | 0.284 µM | 1.83 µM | 0.603 µM | 0.202 µM | 0.483 µM | 0.514 µM | 0.354 µM | 0.198 µM
8 | COc1ccc(-c2nnc(N3CCN(C(=O)CN4CCN(c5ccc(OC)cc5)CC4)CC3)nc2-c2ccc(OC)cc2)cc1 | 51.1 µM | 34.6 µM | 8.4 µM | 23.1 µM | 33.4 µM | 4 µM | – | 6.5 µM | > 72.1 µM | 44.8 µM | 15.5 µM | 6.96 µM | 2.93 µM | 3.17 µM | 9.73 µM | 2.1 µM | – | 2.37 µM | 20.3 µM | 15.6 µM
9 | CCC1=C[C@@H]2CN(C1)Cc1c([nH]c3ccccc13)[C@@](C(=O)OC)(c1cc3c(cc1OC)N(C)[C@H]1[C@@](O)(C(=O)OC)[C@H](OC(C)=O)[C@]4(CC)[C@@H]5C[C@@H]5CN5CC[C@]31[C@@H]54)C2 | 6.17 µM and 20.5 µM | 6.21 µM and 16 µM | 6.54 µM and 11.1 µM | 1.29 µM | 10.2 µM and 38.4 µM | – | 6.9 µM and 12.7 µM | 0.656 µM | < 0.005 µM and 0.011 µM | 11 µM | 0.0319 µM and 0.0818 µM | 0.0162 µM and 0.0881 µM | < 0.005 µM | < 0.005 µM | < 0.005 µM and 0.0492 µM | – | < 0.005 µM and 0.0292 µM | < 0.005 µM | < 0.005 µM | –
10 | NC(=O)/C=C/C(=O)O | – | > 5000 µM | > 5000 µM | > 5000 µM | > 5000 µM | – | > 5000 µM | > 5000 µM | > 5000 µM | > 5000 µM | – | – | – | – | – | – | – | – | – | –
11 | CC1(C)OC2COC3(CNO)OC(C)(C)OC3C2O1 (centres undefined) | > 100 µM | > 100 µM | > 100 µM | > 100 µM | > 100 µM | > 100 µM | > 100 µM | – | > 100 µM | > 100 µM | – | – | – | – | – | – | – | – | – | –
12 | COCCOCCOCc1n(Cc2ccc3ccccc3n2)c2ccccc2[n+]1Cc1ccc2ccccc2c1 | – | 13.6 µM | 1.63 µM | 0.9 µM | 10.3 µM | 1.52 µM | 1.92 µM | 1.33 µM | 2.58 µM | 1.35 µM | – | 3.48 µM | 0.388 µM | 0.275 µM | 0.386 µM | 0.358 µM | 0.498 µM | 0.185 µM | 0.804 µM | 0.312 µM
13 | COc1cc2cnc3c4ccccc4ccc3c2cc1OC | > 100 µM | – | > 100 µM | > 100 µM | > 100 µM | > 100 µM | > 100 µM | > 100 µM | > 100 µM | > 100 µM | – | – | – | – | – | – | – | – | – | –
14 | O=C(c1ccc2ccccc2c1)c1c(C(F)(F)F)n([O-])c2ccc(Cl)cc2[n+]1=O | 3.01 µM | 2.94 µM | 2.39 µM | 3.2 µM | – | 2.62 µM | 2.91 µM | 1.66 µM | 3.08 µM | 2.57 µM | 1.63 µM | 1.55 µM | 1.08 µM | 1.59 µM | – | 1.32 µM | 1.55 µM | 0.373 µM | 1.66 µM | 1.3 µM
15 | CSc1c(C)c(C)nn1-c1ccccc1 | > 100 µM | > 100 µM | > 100 µM | > 100 µM | > 100 µM | – | > 100 µM | > 100 µM | > 100 µM | > 100 µM | – | – | – | – | – | – | – | – | – | –
16 | O=C(O)CCC(NC(=S)S)C(=O)O.[Na+].[Zn+2] (centres undefined) | > 50 µM | > 50 µM | > 50 µM | > 50 µM | > 50 µM | > 50 µM | > 50 µM | > 50 µM | – | > 50 µM | > 50 µM | > 50 µM | > 50 µM | > 50 µM | > 50 µM | > 50 µM | > 50 µM | > 50 µM | – | > 50 µM
